These results are taken from patent US20260103465A1, “GLYCOGEN SYNTHASE KINASE 3 INHIBITORS AND USES THEREOF” (The Broad Institute, Inc., priority 2023, published 2026).

pIC50: −log10 of the molar value. Read-outs that look alike come from different tables or passages of the source.

By pIC50 is commonly meant the IC50 on a negative log10 scale, so that one unit is a factor of ten.

Assay [1] has as its target T1, GSK3a (GST-full length GSK3a) (Homo sapiens, UniProt P49840).
T1 construct: GST-full length GSK3a [SignalChem G08-10G]; purchased SignalChem G08-10G
In words: GSK3a TR-FRET kinase inhibition assay. Format: biochemical. In a few lines: (§1)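 IC50 derived from normalized 665/615 TR-FRET signal (Tb anti-pSer641 antibody, streptavidin-d2), read after EDTA stop. Reaction: 1 nM GST-full-length enzyme, 30 min compound pre-incubation, 100 min at ambient temperature in Tris pH 7.5 with 1% DMSO, 200 nM biotinylated primed glycogen synthase peptide, ATP 2 μM to 1 mM.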
For orientation: TR-FRET usually uses a lanthanide donor and a delayed reading to cut background.

In assay [2] the target is T2, GSK3b (GST-full length GSK3b) (Homo sapiens, UniProt P49841).
T2 construct: GST-full length GSK3b: [SignalChem G08-9G]; purchased SignalChem G08-9G
T2 sequence (P49841 whole entry): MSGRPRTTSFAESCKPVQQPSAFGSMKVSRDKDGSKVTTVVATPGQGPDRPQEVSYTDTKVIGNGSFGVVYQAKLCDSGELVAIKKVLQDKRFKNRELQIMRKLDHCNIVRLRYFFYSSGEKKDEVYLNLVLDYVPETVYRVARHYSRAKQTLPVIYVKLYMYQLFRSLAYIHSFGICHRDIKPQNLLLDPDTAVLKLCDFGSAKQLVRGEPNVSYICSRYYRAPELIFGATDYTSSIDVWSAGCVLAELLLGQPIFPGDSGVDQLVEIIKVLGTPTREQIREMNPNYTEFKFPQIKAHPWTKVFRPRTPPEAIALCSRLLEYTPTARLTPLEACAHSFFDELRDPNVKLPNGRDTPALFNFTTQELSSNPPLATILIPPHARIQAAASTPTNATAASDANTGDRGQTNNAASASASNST
Description: GSK3b TR-FRET kinase inhibition assay. Format: biochemical. In a few lines:
as §1

[3] abbreviates: 1 mM ATP, Table 3, read-out: GSK3a TR-FRET 1 mM ATP Average IC50.
Where [4] appears, read: 1 mM ATP, Table 3, read-out: GSK3b TR-FRET 1 mM ATP Average IC50.
The mark [5] stands for this setting: 4 μM ATP, read-out: GSK3α TR-FRET 4 μM ATP GMean IC50.
Where [6] appears, read: 2 μM ATP, read-out: GSK3β TR-FRET 2 μM ATP GMean IC50.
Setting [7] is: 1 mM ATP, Table 5, read-out: GSK3α TR-FRET 1 mM ATP Average IC50.
Setting [8] is: 1 mM ATP, Table 5, read-out: GSK3β TR-FRET 1 mM ATP Average IC50.

T1 sequence (P49840 whole entry): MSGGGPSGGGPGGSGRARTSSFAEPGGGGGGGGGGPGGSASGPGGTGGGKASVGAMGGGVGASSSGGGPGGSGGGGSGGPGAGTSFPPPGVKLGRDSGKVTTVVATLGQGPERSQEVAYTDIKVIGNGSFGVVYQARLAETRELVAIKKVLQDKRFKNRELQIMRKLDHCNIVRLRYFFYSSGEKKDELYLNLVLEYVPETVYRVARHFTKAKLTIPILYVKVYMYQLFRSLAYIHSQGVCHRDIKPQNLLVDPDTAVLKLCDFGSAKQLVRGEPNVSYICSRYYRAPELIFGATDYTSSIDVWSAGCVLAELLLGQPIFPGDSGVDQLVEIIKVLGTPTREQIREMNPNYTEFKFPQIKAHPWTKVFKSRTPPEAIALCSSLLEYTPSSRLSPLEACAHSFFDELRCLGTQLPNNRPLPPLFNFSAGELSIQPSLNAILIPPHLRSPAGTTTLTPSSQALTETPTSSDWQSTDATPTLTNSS

Turning to `COc1cncc(F)c1-c1cccc(C2(C)C3=C(CC(C)(C)CC3=O)Nc3ncc(F)cc32)c1` (single isomer, unassigned) [Compound 156A], the negative logarithm of the IC50 (pIC50) in assay [1] (setting [3]) was at least 7.00; in assay [2] (setting [4]), 6.00 to 7.00.

For `COc1cncc(F)c1-c1cccc(C2(C)C3=C(CC(C)(C)CC3=O)Nc3ncc(F)cc32)c1` (single isomer, unassigned) [Compound 156B], the pIC50 in assay [1] (setting [3]) and in assay [2] (setting [4]) was 4.70 to 5.30 each time.

Turning to `CC1(C)CC(=O)C2=C(C1)Nc1ncc(C(F)(F)F)cc1C2(C)c1cccc(S(C)(=O)=O)c1` (single isomer, unassigned) [Compound 157A], the negative-log IC50 (pIC50) was 5.30 to 6.00 in assay [1] (setting [3]) and 6.00 to 7.00 in assay [2] (setting [4]).

In the case of `CC1(C)CC(=O)C2=C(C1)Nc1ncc(C(F)(F)F)cc1C2(C)c1cccc(S(C)(=O)=O)c1` (single isomer, unassigned) [Compound 157B], the negative-log IC50 (pIC50) in assay [1] (setting [3]) and in assay [2] (setting [4]) was 4.70 to 5.30 throughout.

Take `CC1(C)CC(=O)C2=C(C1)Nc1ncccc1C2(C)c1cccc(-c2ccncc2N2CCCC2)c1` (single isomer, unassigned) [Compound 158A]: the pIC50 in assay [1] (setting [3]) and in assay [2] (setting [4]) was 6.00 to 7.00 in each case.

Consider `CC(C)(C)Cn1nccc1-c1cccc(C2(C)C3=C(CC(C)(C)CC3=O)Nc3ncc(F)cc32)c1` (single isomer, unassigned) [Compound 160A], for which the negative-log IC50 (pIC50) in assay [1] (setting [3]) and in assay [2] (setting [4]) was 6.00 to 7.00 throughout.

As to `CC1(C)CC(=O)C2=C(C1)Nc1ncccc1C2(C)c1cccc(-c2ccncc2OCC(F)F)c1` (single isomer, unassigned) [Compound 162A], the pIC50 was 4.70 to 5.30 in assay [1] (setting [3]) and 5.30 to 6.00 in assay [2] (setting [4]).

For `CC1(C)CC(=O)C2=C(C1)Nc1ncccc1C2(C)c1cccc(-c2ccncc2OCC(F)F)c1` (single isomer, unassigned) [Compound 162B], the negative-log IC50 (pIC50) in assay [1] (setting [3]) and in assay [2] (setting [4]) was 6.00 to 7.00 in each case.

Consider `CC1(C)CC(=O)C2=C(C1)Nc1ncccc1C2(C)c1cccc(-c2ccncc2CC(F)(F)F)c1` (single isomer, unassigned) [Compound 163A], for which the negative logarithm of the IC50 (pIC50) in assay [1] (setting [3]) and in assay [2] (setting [4]) was 6.00 to 7.00 in each case.

With `CC1(C)CC(=O)C2=C(C1)Nc1ncccc1C2(C)c1cccc(-c2ccncc2N2CCOCC2)c1` (single isomer, unassigned) [Compound 164A], the negative-log IC50 (pIC50) in assay [1] (setting [3]) and in assay [2] (setting [4]) was 5.30 to 6.00 throughout.

As to `CCC1(c2cccc(-c3ccnc4c3CCCC4)c2)C2=C(CC(C)(C)CC2=O)Nc2ncc(F)cc21` (single isomer, unassigned) [Compound 165A], the negative logarithm of the IC50 (pIC50) in assay [1] (setting [5]) was 5.30 to 6.00; in assay [1] (10 μM ATP, read-out: GSK3a 10 μM ATP Average IC50), at least 7.00; in assay [1] (100 μM ATP, read-out: GSK3a 100 μM ATP Average IC50), at least 7.00; in assay [1] (setting [3]), 6.00 to 7.00; in assay [2] (setting [6]) it was below 5.30; in assay [2] (10 μM ATP, read-out: GSK3b 10 μM ATP Average IC50), at least 7.00. The negative logarithm of the IC50 (pIC50) in assay [2] (100 μM ATP, read-out: GSK3b 100 μM ATP Average IC50) was at least 7.00; in assay [2] (setting [4]), 6.00 to 7.00.

As to `CC1(C)CC(=O)C2=C(C1)Nc1ncc(F)c(C(F)(F)F)c1C2(C)c1cccc(S(C)(=O)=O)c1` (single isomer, unassigned) [Compound 166A], the negative-log IC50 (pIC50) in assay [1] (setting [3]) and in assay [2] (setting [4]) was 6.00 to 7.00 each time.

For the compound `CC1(C)CC(=O)C2=C(C1)Nc1ncc(F)c(C(F)(F)F)c1C2(C)c1cccc(S(C)(=O)=O)c1` (single isomer, unassigned) [Compound 166B], the negative-log IC50 (pIC50) in assay [1] (setting [3]) and in assay [2] (setting [4]) was 4.70 to 5.30 each time.

`COc1cncc(F)c1-c1cccc(C2(C)C3=C(CC(C)(C)CC3=O)Nc3ncc(C4CC4)cc32)c1` (single isomer, unassigned) [Compound 167A]: the pIC50 in assay [1] (setting [3]) and in assay [2] (setting [4]) was 6.00 to 7.00 in each case.

For `COc1cncc(F)c1-c1cccc(C2(C)C3=C(CC(C)(C)CC3=O)Nc3ncc(C4CC4)cc32)c1` (single isomer, unassigned) [Compound 167B], the pIC50 in assay [1] (setting [3]) and in assay [2] (setting [4]) was 5.30 to 6.00 in each case.

Turning to `CC1(C)CC(=O)C2=C(C1)Nc1ncc(F)cc1C2(C)c1cccc(-c2c(F)cncc2CC2CC2)c1` (single isomer, unassigned) [Compound 169A], the pIC50 in assay [1] (setting [3]) and in assay [2] (setting [4]) was 6.00 to 7.00 throughout.

As for `Cc1nn(C)c(C)c1-c1cccc(C2(C)C3=C(CC(C)(C)CC3=O)Nc3ncc(C(F)(F)F)cc32)c1` (single isomer, unassigned) [Compound 170A], the negative-log IC50 (pIC50) in assay [1] (setting [3]) and in assay [2] (setting [4]) was 5.30 to 6.00 throughout.

Take `Cc1nn(C)c(C)c1-c1cccc(C2(C)C3=C(CC(C)(C)CC3=O)Nc3ncc(C(F)(F)F)cc32)c1` (single isomer, unassigned) [Compound 170B]: the negative-log IC50 (pIC50) in assay [1] (setting [3]) is 4.70 to 5.30; in assay [2] (setting [4]), 5.30 to 6.00.

Take `CC(C)n1cncc1-c1cccc(C2(C)C3=C(CC(C)(C)CC3=O)Nc3ncc(C(F)(F)F)cc32)c1` (single isomer, unassigned) [Compound 171A]: the pIC50 in assay [1] (setting [3]) and in assay [2] (setting [4]) was 5.30 to 6.00 in each case.

With `CC(C)n1cncc1-c1cccc(C2(C)C3=C(CC(C)(C)CC3=O)Nc3ncc(C(F)(F)F)cc32)c1` (single isomer, unassigned) [Compound 171B], the negative logarithm of the IC50 (pIC50) in assay [1] (setting [3]) is 5.30 to 6.00; in assay [2] (setting [4]), 6.00 to 7.00.

On to `COc1cncc(CC(C)(C)C)c1-c1cccc(C2(C)C3=C(CC(C)(C)CC3=O)Nc3ncccc32)c1` (single isomer, unassigned) [Compound 172A], for which the pIC50 in assay [1] (setting [3]) and in assay [2] (setting [4]) was 6.00 to 7.00 each time.

In the case of `CC(C)(C)Cc1cncc(F)c1-c1cccc(C2(C)C3=C(CC(C)(C)CC3=O)Nc3ncc(F)cc32)c1` (single isomer, unassigned) [Compound 173A], the pIC50 in assay [1] (setting [3]) and in assay [2] (setting [4]) was 5.30 to 6.00 in each case.

Turning to `COc1cncc(F)c1-c1cccc(C2(C)C3=C(CC(C)(C)CC3=O)Nc3ncc(C(F)(F)F)cc32)c1` (single isomer, unassigned) [Compound 174A], the negative logarithm of the IC50 (pIC50) in assay [1] (setting [3]) and in assay [2] (setting [4]) was 5.30 to 6.00 throughout.

For `COc1cncc(F)c1-c1cccc(C2(C)C3=C(CC(C)(C)CC3=O)Nc3ncc(C(F)(F)F)cc32)c1` (single isomer, unassigned) [Compound 174B], the figures for the pIC50 in assay [1] (setting [3]) and in assay [2] (setting [4]) were 5.30 to 6.00 and 6.00 to 7.00, respectively.

Consider `CC1(C)CC2=C(C(=O)[C@@H]1F)[C@@](C)(c1ccccc1)c1c(ncc(F)c1C#N)N2` (single isomer, unassigned) [Compound 616A], for which the pIC50 in assay [1] (setting [7]) and in assay [2] (setting [8]) was 6.00 to 7.00 each time.

As for `CC1(C)CC2=C(C(=O)[C@@H]1F)[C@](C)(c1ccccc1)c1c(ncc(F)c1C#N)N2` (single isomer, unassigned) [Compound 616B], the pIC50 in assay [1] (setting [7]) and in assay [2] (setting [8]) was 6.00 to 7.00 each time.

Regarding `CC1(C)CC2=C(C(=O)[C@H]1F)[C@@](C)(c1ccccc1)c1c(ncc(F)c1C#N)N2` (single isomer, unassigned) [Compound 616C], the pIC50 in assay [1] (setting [7]) and in assay [2] (setting [8]) was 4.70 to 5.30 throughout.

With `CC1(C)CC2=C(C(=O)[C@H]1F)[C@](C)(c1ccccc1)c1c(ncc(F)c1C#N)N2` (single isomer, unassigned) [Compound 616D], the pIC50 in assay [1] (setting [7]) and in assay [2] (setting [8]) was 4.70 to 5.30 throughout.

As to `CC1(C)CC(=O)C2=C(Nc3ncc(F)c(C#N)c3[C@]2(C)c2ccccc2)[C@H]1F` (single isomer, unassigned) [Compound 617A], the pIC50 in assay [1] (setting [7]) and in assay [2] (setting [8]) was 4.70 to 5.30 in each case.

Regarding `CC1(C)CC(=O)C2=C(Nc3ncc(F)c(C#N)c3[C@@]2(C)c2ccccc2)[C@@H]1F` (single isomer, unassigned) [Compound 617B], the negative logarithm of the IC50 (pIC50) in assay [1] (setting [7]) and in assay [2] (setting [8]) was 6.00 to 7.00 throughout.

On to `CC1(C)CC(=O)C2=C(Nc3ncc(F)c(C#N)c3[C@]2(C)c2ccccc2)[C@@H]1F` (single isomer, unassigned) [Compound 617C], for which the negative-log IC50 (pIC50) in assay [1] (setting [7]) and in assay [2] (setting [8]) was 4.70 to 5.30 throughout.

For `CC1(C)CC(=O)C2=C(Nc3ncc(F)c(C#N)c3[C@@]2(C)c2ccccc2)[C@H]1F` (single isomer, unassigned) [Compound 617D], the pIC50 in assay [1] (setting [7]) and in assay [2] (setting [8]) was 6.00 to 7.00 in each case.

`CC1(C)CC(=O)C2=C(Nc3ncc(C(F)F)c(C#N)c3[C@]2(C)c2ccccc2)[C@H]1F` (single isomer, unassigned) [Compound 633A]: the pIC50 in assay [1] (setting [7]) was 4.70 to 5.30; in assay [2] (setting [8]), 5.30 to 6.00.

Take `CC1(C)CC(=O)C2=C(Nc3ncc(C(F)F)c(C#N)c3[C@@]2(C)c2ccccc2)[C@@H]1F` (single isomer, unassigned) [Compound 633B]: the pIC50 was 5.30 to 6.00 in assay [1] (setting [7]) and 6.00 to 7.00 in assay [2] (setting [8]).

`CC1(C)CC(=O)C2=C(Nc3ncc(C(F)F)c(C#N)c3[C@]2(C)c2ccccc2)[C@@H]1F` (single isomer, unassigned) [Compound 633C]: the negative logarithm of the IC50 (pIC50) in assay [1] (setting [7]) and in assay [2] (setting [8]) was 4.70 to 5.30 in each case.

On to `CC1(C)CC(=O)C2=C(Nc3ncc(C(F)F)c(C#N)c3[C@@]2(C)c2ccccc2)[C@H]1F` (single isomer, unassigned) [Compound 633D], for which the negative-log IC50 (pIC50) in assay [1] (setting [7]) is 5.30 to 6.00; in assay [2] (setting [8]) it was 6.00 to 7.00.

`CCC1(c2ccccc2)C2=C(CC(C)(C)NC2=O)Nc2ncccc21` (single isomer, unassigned) [Compound 1002A]: the negative logarithm of the IC50 (pIC50) in assay [1] (setting [5]) and in assay [2] (setting [6]) was below 5.30 throughout.
